From PubChem BioAssay AID1508591

Settings: rat; liver microsomes; pH 7.4; 15.0 min; 1.0 µM

SMILES | half-life [min]
Cc1cc(NC(=S)N2CCN(c3cccc(C(F)(F)F)c3)CC2)nc2ccccc12 | 26
CCCc1cc(=O)oc2c3c(c4c(c12)OC(C)(C)C=C4)OC(C)C(C)C3O (stereo not given) | 13.2
Cc1cc(-c2nnc3n2CCCCC3)c(C)n1-c1cccc(Cl)c1 | 1.95
CC1=C(C(=O)Nc2nncs2)C(c2[nH]ncc2Cl)N=C(Nc2nc3ccccc3o2)N1 (stereo not given) | > 30
COC(=O)Nc1nc2ccc(C(=O)c3ccccc3)cc2[nH]1 | > 30
CN(C)c1ccc(-c2cc[nH]c(=O)c2N)cc1 | > 30
CC(=O)c1c(C)[nH]c(C(=O)Nc2cccc([S+](=O)([O-])Nc3ccccc3)c2)c1C | 4.2
O=C(O)CCC(=O)Nc1nc(-c2ccccc2)cs1 | > 30
CC(C)c1ccc(OCc2nc3c(n2Cc2ccccc2)C(=O)N(CC2CC2)CCN3)cc1 | 1.82
Fc1cccc(CN2CCNc3cc(Nc4ccccc4)ncc3C2)c1 | 1.14
CSc1cccc(NC(=O)CC[C@H]2O[C@@H]3O[C@]4(C)CC[C@H]5[C@H](C)CC[C@@H]([C@@H]2C)[C@@]35OO4)c1 | 2.3
Cn1cnc2c(F)c(Nc3ccc(Br)cc3Cl)c(C(=O)NOCCO)cc21 | > 30
CCOc1ccc(CCNC(=O)c2cc3ccncc3n2Cc2cccc(C)c2)cc1OCC | 7.1
CC(C)(C)c1ccc(C(=O)N2CC(=O)Nc3ccc(F)cc3C2c2ccc(F)cc2)cc1 (stereo not given) | 8.57
COC(=O)c1ccnc(-c2cc(C(=O)Nc3ccc(C4(N)CC4)cc3)ccn2)c1 | > 30
O=C(CCCc1ccc2cccnc2n1)NCc1cc(-c2ccc(F)c(C(F)(F)F)c2)no1 | 9.4
Cc1cccc(-c2csc(N3CCC(C(N)=O)CC3)n2)c1 | 1.66
Cc1ccc(Nc2nc(-c3ccncc3)nc3ccccc23)cc1F | 12
COc1ccc(-n2nc(C3CCCN(C(=O)c4ccc(C)cc4)C3)[nH]c2=O)cc1 (stereo not given) | 23.9
c1cn2cc(-c3ccc4cn[nH]c4c3)nc(Nc3ccc(N4CCOCC4)cc3)c2n1 | 24.9
CN(C)CCCn1cc(C2=C(c3c[nH]c4ccccc34)C(=O)NC2=O)c2ccccc21 | 10.5

SMILES | half-life [min]
CCOc1ccc(-c2nnc(SCC(=O)NCc3ccccc3Cl)o2)cc1 | 3.32
Cc1c(CN(C)c2cc(C3CC(O)C3)nc(N)n2)[nH]c2ccccc12 (stereo not given) | 15
CCn1nc(C2CCN(C(=O)CCO)CC2)nc1-c1cnc(N)c(-c2nnc(C(C)(C)C)o2)n1 | > 30
O=S(=O)(Nc1nccs1)c1ccc(NCc2cccc(Cl)c2Cl)cc1 | 25
CCOc1ccc(CCNC(=O)c2cc3cccnc3n2Cc2cccc(C)n2)cc1OCC | 1.7
Cc1cc(NS(=O)(=O)c2ccc(C(=O)NCc3ccc(Cl)c(Cl)c3)cc2)no1 | > 30
COC(=O)C1=C(C)NC(C)=C(C(=O)OCCCN2CCC(c3ccccc3)(c3ccccc3)CC2)C1c1cccc([N+](=O)[O-])c1 (stereo not given) | 5.13
COc1ccc(-n2nc(C3CCN([S+](=O)([O-])c4c(C)noc4C)CC3)[nH]c2=O)cc1 | 22.9
O=C(c1ccc2c(c1)ncn2-c1ccccc1)N1CCCCC1 | 16
Cc1cc(N[S+](=O)([O-])c2ccc(NC(=O)Cc3ccc(F)c(F)c3)cc2)no1 | > 30
O=C(NCc1ccc(N2CCCC2)nc1)c1cc(Cl)ccc1O | 1.9
COc1ccccc1NC(=O)c1oc2ccccc2c1NC(=O)Cc1cccs1 | 6.77
O=C(Nc1nc(-c2ccccc2)cs1)c1ccncc1NS(=O)(=O)c1ccc(N2CCCC2=O)cc1 | 1.6
CCOc1ccc(/C=C/c2nc3ccccc3n2S(=O)(=O)c2cccc(Cl)c2)cc1 | > 30
Cc1ccc(S(=O)(=O)Nc2ccccc2C(=O)Nc2nc(-c3ccccc3)c(Br)s2)cc1 | 10
O=C(Oc1ccc[nH]c1=O)c1cc([N+](=O)[O-])cc([N+](=O)[O-])c1 | 1.46
CCN(CC)CCCCNc1ncc2cc(-c3c(Cl)cccc3Cl)c(NC(=O)NC(C)(C)C)nc2n1 | > 30
O=C(Nc1ccc(Cl)cc1)Nc1ccc(Cl)c(Cl)c1 | > 30
O=C(Nc1ncc(Cc2ccc(C(F)(F)F)cc2)s1)c1ccc(-c2ccc([N+](=O)[O-])cc2)o1 | > 30
O=C(O)CNC(=O)c1c(O)c2ccccc2n(Cc2ccccc2)c1=O | 23.6
Cc1ccc2oc(NC3=NC4(CCCC4)C4=C(CCCC4=O)N3)nc2c1 | 2.7

SMILES | half-life [min]
Oc1ccc(CN2CC(CNc3ccccc3)C3(C2)CN(c2ccccc2)C3)cc1 (stereo not given) | 3.01
Cc1c(NC2=C(Cl)C(=O)N(c3ccccc3)C2=O)c(=O)n(-c2ccccc2)n1C | 23
CCc1ccc(C2C(C(=O)Nc3ccccc3OC)=C(C)Nc3c(C(=O)Nc4ccc(C)cc4)cnn32)cc1 (stereo not given) | 2.75
CCOc1ccccc1C(=O)Nc1ccccc1C(=O)Nc1cccc(C(F)(F)F)c1 | 22.8
Cc1cc(C)cc(C(=O)Nc2ccc3c(N4CCCC4)ncnc3c2)c1 | 8.23
CC(=O)c1cccc(-c2csc(N3CCC(C(N)=O)CC3)n2)c1 | 2.21
CCN1C(=O)c2ccccc2[S@](=O)c2ccc(C(=O)N[C@H](C)c3ccc4ccccc4c3)cc21 | 5.2
N#C/C(=C\c1ccc(-c2ccc(C(=O)O)cc2)o1)c1nc2ccccc2[nH]1 | > 30
CC(C)Oc1ccc(CCNC(=O)c2cc3sccc3n2Cc2ccccc2)cc1OC(C)C | 2.7
O=C(O)c1ccc(-c2c[nH]c3ncc(-c4ccccc4)cc23)cc1C1CCCC1 | > 30
CNC(=O)c1ccc(C)c(-n2c(C)cc(OCc3ccc(F)cc3F)c(Br)c2=O)c1 | > 30
CCCCOc1ccc(C2c3c(oc4ccc(C)cc4c3=O)C(=O)N2CCCN(C)C)cc1OCC (stereo not given) | 25.9
CC(=O)Nc1cccc(Nc2nc3ccccc3n3c(C)nnc23)c1 | > 30
COc1cc(C(=O)NC2CCCc3c2[nH]c2ccccc32)cc(OC)c1OC (stereo not given) | 11.8
CC(C)CS(=O)(=O)c1oc(-c2ccc(F)cc2)nc1S(=O)(=O)c1ccccc1 | 1.18
C[C@]1(CO)CN(c2cc(C(=O)Nc3ccc4c(c3)-c3c(c(C(N)=O)nn3-c3ccc(F)cc3)CC4)c(Cl)cn2)C[C@@]1(C)CO | 23.2
COc1cc(Cl)ccc1C(=O)Nc1nc(-c2ccccc2)cs1 | 14
Cc1ccnc(NC(=S)N2CCN(c3ccc(N)cc3)CC2)c1 | > 30
CN1CC=C(c2nc(Nc3ccc(F)c(F)c3)c3ccccc3n2)CC1 | 3.6
CN(C(=O)CSc1nc2ccc(NC(=O)c3ccc(F)cc3)cc2s1)c1ccccc1 | 2.04
COc1ccc(-c2c(-c3cc(C(=O)O)ccn3)ncn2C)cc1 | > 30

More lines, now with the values ahead:

half-life [min] | SMILES
> 30 | Nc1scc2c(C(=O)O)nn(-c3ccccc3)c(=O)c12
1.72 | CN1CCN(c2ccc(Nc3c4ccccc4nc4ccccc34)cc2)CC1
3.52 | CC(C)C[C@H](NC(=O)[C@H](CCc1ccccc1)NC(=O)CN1CCOCC1)C(=O)N[C@@H](Cc1ccccc1)C(=O)N[C@@H](CC(C)C)C(=O)[C@@]1(C)CO1
2.06 | C=C[C@]1(C)C[C@@H](OC(=O)CSC(C)(C)CNC(=O)[C@H](N)C(C)C)[C@]2(C)[C@H](C)CC[C@]3(CCC(=O)[C@H]32)[C@@H](C)[C@@H]1O
18 | CC(=O)Nc1nc(-c2ccc3c(c2)CCN3C(=O)c2ccccc2C)c(C)s1
24 | COc1cccc(-c2nc(-c3cc4cc(OC)ccc4[nH]c3=O)no2)c1
3.4 | O=C(Nc1cccc(C(F)(F)F)c1)C1=CCN(Cc2ccc(F)cc2)CC1
5.48 | COc1ncccc1-c1cc2[nH]ccc2c(C(=O)NCc2c(C)cc(C)[nH]c2=O)n1
4.99 | CC(C)(N)C(=O)N[C@H](COCc1ccccc1)C(=O)N1CCC2(CC1)CN(S(C)(=O)=O)c1ccccc12
3.6 | Cc1cc(-c2nnc3n2CCCCC3)c(C)n1-c1ccc(C#N)cc1
> 30 | CCOC(=O)N1CCc2c(sc(NCc3ccc(N(C)C)cc3)c2C(=O)Nc2ccc(OC)cc2)C1
1.86 | Cc1cccc(C)c1Nc1c(-c2ccccn2)nc2ccc(Cl)cn12
5.07 | COc1ccc(C(=O)c2sc(Nc3cccc(Cl)c3)nc2N)cc1
> 30 | CCOc1ccc(N2CC(c3nc(-c4ccccn4)no3)CC2=O)cc1 (stereo not given)
> 30 | Fc1ccc(Nc2nc(Nc3ccncc3)nc3ccccc23)cc1F
> 30 | NC(=O)C1CCN(c2ncc(Br)cn2)CC1
7 | Cc1cn2c(-c3cn[nH]c3)cnc2c(Nc2ccc(C(=O)N3CCNCC3)cc2F)n1
6.82 | Cc1ccccc1CN1C2=NCCN2C(=O)C2=C1CCN(Cc1ccccc1)C2
2.28 | Fc1ccc(CN2CCNc3cc(Nc4ccccc4)ncc3C2)cc1F

half-life [min] | SMILES
3.4 | Cc1ccc(-c2cc3c(nn2)-c2ccccc2C3=O)cc1
17.1 | Cc1ccc(NC(=O)N2CCN(c3nc(N)nc4sc(-c5cccnc5)nc34)CC2)cc1
> 30 | O=C(Nc1ncc(Cc2ccc(C(F)(F)F)cc2)s1)c1cnc(-c2ccccc2)s1
> 30 | Cc1cc(C)c(CNC(=O)c2nc(-c3ccc(CN(C)C)cc3)cc3c2ccn3C(C)C)c(=O)[nH]1
1.17 | CCN(CC)S(=O)(=O)c1ccc(N2CCCC2)c(NS(=O)(=O)c2ccc(C)cc2)c1
> 30 | COc1ccc(NC(=O)c2[nH]c(C)c(C(C)=O)c2C)cc1
17 | CC(=O)c1c(C)[nH]c(C(=O)Nc2cccc([S+](=O)([O-])Nc3cccnc3)c2)c1C
1.96 | CCc1cccc(NS(=O)(=O)c2ccc3c(c2)CC(C)N3C(=O)C2CC2)c1 (stereo not given)
4.04 | COc1ccc(CCN2C(=O)N(c3ccc(F)cc3)C(=O)C2CC(=O)Nc2ccc(F)c(F)c2)cc1 (stereo not given)
2.4 | COc1ccc(-n2c(C)cc(-c3nnc4n3CCCCC4)c2C)cc1
> 30 | Cc1cccc(C(=O)Nc2ccc(N3CCC(N4CCCCC4)CC3)c(C(=O)O)c2)c1
> 30 | Cc1cc(NS(=O)(=O)c2ccc(NC(=O)Cc3ccc(Cl)c(F)c3)cc2)no1
1.5 | COc1ccc(OC)c(N2C(=O)C(Cl)=C(N3CCCCC3)C2=O)c1
17 | CCCNC(=O)c1ccc2c(c1)ncn2-c1cc(C)cc(C)c1
4.68 | COc1ccc(-c2csc(N3CCC(C(N)=O)CC3)n2)cc1
4.79 | Cc1ccc(C(=O)N2CCc3sc(C(=O)NC(C)c4ccccc4)cc3C2)cc1 (stereo not given)
6.5 | CCn1c(C)c(C(C)=O)c(C)c1C(=O)Nc1cccc([S+](=O)([O-])N(C)C)c1
9.5 | COC(=O)c1ccc(Nc2nc(-c3ccncc3)nc3ccccc23)cc1OC
